Structures are written as SMILES. Calls of active or inactive are those of the source. No cut-off for these calls is given here.

This is an account of results in ChEMBL document CHEMBL3596160, “From AChE to BACE1 inhibitors: The role of the amine on the indanone scaffold” (Bioorg Med Chem Lett, 2015).

In series [1] the target is T1, Acetylcholinesterase (Homo sapiens, UniProt P22303).
Description: Inhibition of human recombinant AChE using acetylthiocholine iodide as substrate preincubated with enzyme for 20 mins prior to substrate addition by Ellman's method
Series [2] concerns the target Beta-secretase 1 (Homo sapiens, UniProt P56817). Briefly: Inhibition of human recombinant BACE1 using M-2420 as substrate preincubated with enzyme for 1 hr by FRET assay.
Series [3] concerns the target T1, Acetylcholinesterase. The experiment in a line: Inhibition of human recombinant AChE using acetylthiocholine iodide as substrate up to 50 uM preincubated with enzyme for 20 mins prior to substrate addition by Ellman's method. (Ellman's reagent forms a yellow product with free thiols.)
Series [4] concerns SH-SY5Y. The experiment in a line: (§1) Neurotoxicity against human SH-SY5Y cells assessed as inhibition of cell viability after 24 hrs by MTT assay. Type of series: toxicity, cell-based. The following applies: sh-sy5y, 24 h. For orientation: Tetrazolium assays rely on reduction of a dye to a coloured formazan, in cell work by metabolically active cells.
A short description of series [5]: as §1. Type of series: toxicity, cell-based. To be noted: SH-SY5Y cells.

Chain of Beta-secretase 1 (P56817 whole entry): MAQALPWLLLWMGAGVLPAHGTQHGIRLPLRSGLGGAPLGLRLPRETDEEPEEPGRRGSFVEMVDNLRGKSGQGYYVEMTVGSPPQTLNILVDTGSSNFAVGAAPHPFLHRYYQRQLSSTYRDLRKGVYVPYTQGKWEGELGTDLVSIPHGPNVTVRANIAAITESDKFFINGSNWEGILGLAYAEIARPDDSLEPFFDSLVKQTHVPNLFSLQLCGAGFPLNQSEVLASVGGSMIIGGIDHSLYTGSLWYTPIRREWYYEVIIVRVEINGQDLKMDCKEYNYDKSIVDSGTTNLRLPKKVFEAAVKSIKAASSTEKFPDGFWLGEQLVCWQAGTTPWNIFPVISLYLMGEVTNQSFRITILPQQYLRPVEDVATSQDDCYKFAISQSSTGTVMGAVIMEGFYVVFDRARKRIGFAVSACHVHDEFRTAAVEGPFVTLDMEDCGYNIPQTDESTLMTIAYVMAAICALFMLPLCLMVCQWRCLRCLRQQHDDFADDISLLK
T1 sequence (P22303 whole entry): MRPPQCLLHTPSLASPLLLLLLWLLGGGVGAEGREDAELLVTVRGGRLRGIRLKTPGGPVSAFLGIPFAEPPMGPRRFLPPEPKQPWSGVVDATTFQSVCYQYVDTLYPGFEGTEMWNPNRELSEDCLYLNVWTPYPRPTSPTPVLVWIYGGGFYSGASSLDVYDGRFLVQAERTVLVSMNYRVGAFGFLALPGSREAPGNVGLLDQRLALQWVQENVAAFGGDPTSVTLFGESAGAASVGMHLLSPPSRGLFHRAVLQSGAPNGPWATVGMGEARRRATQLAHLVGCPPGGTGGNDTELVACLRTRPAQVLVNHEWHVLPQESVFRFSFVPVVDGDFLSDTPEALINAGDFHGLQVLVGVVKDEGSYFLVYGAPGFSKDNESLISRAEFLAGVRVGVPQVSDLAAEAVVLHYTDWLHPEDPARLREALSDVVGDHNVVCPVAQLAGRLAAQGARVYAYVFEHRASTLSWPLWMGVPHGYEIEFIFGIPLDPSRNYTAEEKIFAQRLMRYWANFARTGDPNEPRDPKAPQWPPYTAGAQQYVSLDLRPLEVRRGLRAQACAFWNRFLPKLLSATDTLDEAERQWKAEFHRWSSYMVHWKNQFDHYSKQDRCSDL

Take `CN(Cc1ccccc1)Cc1ccc(/C=C2\CCc3cc(OCCCCCN4CCN(Cc5ccc(F)cc5)CC4)ccc3C2=O)cc1`: in series [1], inhibition was half-maximal at 7.83 µM (IC50).
On to `CN(Cc1ccccc1)Cc1ccc(/C=C2\Cc3ccc(OCCCCCN4CCC(c5ccccc5)CC4)cc3C2=O)cc1`, for which the IC50 (usually the midpoint of a concentration-inhibition curve) in series [1] worked out at 62 µM; in series [2], 13.4 µM.
With `CN(Cc1ccccc1)Cc1ccc(/C=C2\Cc3ccc(OCCCCCN4CCN(Cc5ccc(F)cc5)CC4)cc3C2=O)cc1`, the inhibition result in series [3] was “inactive”.
On to `CN(Cc1ccccc1)Cc1ccc(/C=C2\Cc3ccc(OCCCCCN4CCN(OC(=O)C(C)(C)C)CC4)cc3C2=O)cc1`, for which the Activity result in series [4] was “Non-toxic”. In addition, the IC50 in series [2] worked out at 3.21 µM. Further, the inhibition result in series [3] was “inactive”.
Turning to `CN(Cc1ccccc1)Cc1ccc(/C=C2\Cc3ccc(OCCCCCN4CCN(c5ccccc5)CC4)cc3C2=O)cc1`, in series [2], the IC50 turned out to be 11.7 µM. For the same compound, the inhibition entry in series [3] is “inactive”.
For the compound `CN(Cc1ccccc1)Cc1ccc(/C=C2\Cc3ccc(OCCCCCN4CCN(C(c5ccc(F)cc5)c5ccc(F)cc5)CC4)cc3C2=O)cc1`, the Activity entry in series [4] is on record as “Non-toxic”. Further, the IC50 in series [2] stood at 2.49 µM. In addition, the inhibition result in series [3] was “inactive”.
For the compound `CN(Cc1ccccc1)Cc1ccc(/C=C2\Cc3ccc(OCCCCCN4CCC(n5c(=O)[nH]c6ccccc65)CC4)cc3C2=O)cc1`, the inhibition result in series [3] was “inactive”.
In the case of `CCOC(=O)C1(c2ccccc2)CCN(CCCCCOc2ccc3c(c2)C(=O)/C(=C/c2ccc(CN(C)Cc4ccccc4)cc2)C3)CC1`, in series [2], the IC50 worked out at 8.23 µM. The inhibition entry in series [3] is “inactive”.
`CN(Cc1ccccc1)Cc1ccc(/C=C2\Cc3ccc(OCCCCCN4CCCCC4)cc3C2=O)cc1`: the IC50 at 24 h in series [5] was 23.3 µM.
For `CN(Cc1ccccc1)Cc1ccc(/C=C2\CCc3cc(OCCCCCN4CCN(C(c5ccc(F)cc5)c5ccc(F)cc5)CC4)ccc3C2=O)cc1`, the inhibition result in series [3] is “inactive”.
As to `CN(Cc1ccccc1)Cc1ccc(/C=C2\Cc3ccc(OCCCCCN4CCC(=C(c5ccc(F)cc5)c5ccc(F)cc5)CC4)cc3C2=O)cc1`, in series [2], the IC50 was found to be 5.95 µM. Also, the inhibition result in series [3] was “inactive”.
